Results reported in patent US5869081A, “Progesterone vaginal ring for treatment of infertility” (priority 1996, dated 1999).

Key:
[1] = test system: functionally agonadal women; experiment: clinical pregnancy and nidation rates in an oocyte donation cycle (Example III); format: in vivo, human
Protocol: Seventeen functionally agonadal women used a progesterone containing vaginal ring having an in vitro release rate of 10 mg per day as the only source of progesterone during an oocyte donation cycle. When pregnancy was documented on day 12 after embryo transfer, the 10 mg ring was replaced by a vaginal ring having an in vitro release rate of 15 mg, which was left in place until the twelfth week of pregnancy. In the same period of time eighteen other women received daily i.m. injections of 100 mg progesterone. The decision to use one or the other route of administration was not randomized.

[2] = human, in vivo
endometrium = experiment: histology / dating of endometrial biopsies (Example I); format: in vivo, human
Protocol: Endometrial biopsies were performed with an endometrial suction curette (Z-Sampler, California) on day +3 in six patients. Three patients using the 10 mg vaginal ring had endometrial biopsies repeated on day +7. […] Steril. 1:3-25 was used for assessing the day of the menstrual cycle. Endometrial tissue was processed routinely to obtain hematoxylin and eosin stained sections. These were coded and examined by the same pathologist, who was blinded for the hormone replacement therapy of each patient.

[3] = test system: rat embryos at the two cell stage; settings: cultured in vitro in the presence vs absence of hormone; cited from earlier work
[4] = test system: normogonadal women undergoing IVF-ET; experiment: clinical pregnancy rate in IVF-ET (Example IV); format: in vivo, human; settings: daily i.m. injection of 50 mg, 10/26
Protocol: Forty-nine normogonadal women undergoing IVF-ET were randomly assigned to receive a progesterone containing vaginal ring having an in vitro release rate of 10 mg per day (n=23) or a daily intramuscular (i.m.) injection of 50 mg progesterone (n=26). In order to induce multiple follicle growth, subjects received a sequential treatment with a gonadotropin releasing hormone (GnRH) agonist, human menopausal gonadotropin (hMG) and human […] gonadotropin (hCG). Oocytes were aspirated thirty-six hours after administering hCG, and treatment with progesterone, either i.m. or by vaginal ring, began at this time. Progesterone treatment continued for a maximum of seven weeks.

[5] = oral administration; rapid clearance by the liver; cited from earlier work

Question: With CC(=O)[C@H]1CC[C@H]2[C@@H]3CCC4=CC(=O)CC[C@]4(C)[C@H]3CC[C@]12C [progesterone] as the compound, how does the clinical pregnancy rate ([1]; daily i.m. injections of 100 mg, eighteen women) read?
Answer: 38.9%

Question: What about the “nidation rate (total number of gestational sacs/total number of embryos transferred)” value ([1]; i.m. progesterone 100 mg daily, 9/66) of the same compound?
Answer: 13.6%

Question: What about the systemic side effects [2] of the same compound?
Answer: no systemic side effects

Question: And the “circulatory progesterone level with adequate biological effect on the endometrium” value (endometrium; intravaginal delivery)?
Answer: 12-15 nmol/L

Question: What about the advanced endometrial pattern (endometrium; women supplemented with intramuscular progesterone) of the same compound?
Answer: did not exhibit this advanced pattern

Question: And the “development to the blastocyst stage” value [3]?
Answer: better development to the blastocyst stage

Question: And the clinical pregnancy rate [4]?
Answer: 38.4%

Question: And the “bioavailability in the circulation” value [5]?
Answer: low bioavailability
